Test results published in patent publication US20140275094A1, “METHOD FOR TREATING PULMONARY ARTERIAL HYPERTENSION IN A PATIENT NOT HAVING IDIOPATHIC PULMONARY FIBROSIS” (GILEAD SCIENCES, INC., priority 2012, published 2014).

Experiments:
[1] = molecular target: T1, breast cancer resistance protein (BCRP) (Homo sapiens, UniProt Q9UNQ0); test: Inhibition of BCRP, transfected MDCKII cells; format: cell-based; conditions: human, transfected MDCKII cells
T1 construct: expressed in transfected cells; host or cells: MDCKII
T1 sequence (Q9UNQ0 1-655): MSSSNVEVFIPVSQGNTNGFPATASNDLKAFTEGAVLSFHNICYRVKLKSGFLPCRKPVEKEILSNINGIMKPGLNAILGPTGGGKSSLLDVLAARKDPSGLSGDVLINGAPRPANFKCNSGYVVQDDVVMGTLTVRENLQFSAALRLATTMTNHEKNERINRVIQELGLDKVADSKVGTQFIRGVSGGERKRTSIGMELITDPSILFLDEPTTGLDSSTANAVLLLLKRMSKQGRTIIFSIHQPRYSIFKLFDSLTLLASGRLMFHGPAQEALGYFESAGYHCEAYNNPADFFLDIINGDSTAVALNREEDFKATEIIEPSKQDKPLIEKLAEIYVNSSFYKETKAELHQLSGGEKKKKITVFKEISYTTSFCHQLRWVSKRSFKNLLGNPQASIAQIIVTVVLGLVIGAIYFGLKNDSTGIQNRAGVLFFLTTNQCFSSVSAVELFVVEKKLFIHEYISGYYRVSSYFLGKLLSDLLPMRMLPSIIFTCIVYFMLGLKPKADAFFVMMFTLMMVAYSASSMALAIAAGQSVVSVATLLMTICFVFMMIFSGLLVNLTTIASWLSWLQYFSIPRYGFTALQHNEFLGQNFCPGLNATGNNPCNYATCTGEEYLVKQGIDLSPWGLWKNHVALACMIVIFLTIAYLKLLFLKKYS
Description: Inhibition constants (IC50) were measured for human bile salt export pump (BSEP), sodium taurocholate cotransporting polypeptide (NTCP), multidrug resistance protein 2 (MRP2), P-glycoprotein (Pgp), breast cancer resistance protein (BCRP), organic anion-transporting polypeptide 1B1 (OATP1B1), and OATP1B3 in transfected cell-lines. Known inhibitors were used as positive controls.

[2] = Ambrisentan in subjects who discontinued bosentan/sitaxsentan due to aminotransferase elevations (AMB-222, AMB-323); format: in vivo, human; conditions: prior ERA discontinued for aminotransferase >3×ULN
Source text: They were enrolled in studies AMB-222 (n=36) and AMB-323 (n=27). […] The remaining subjects in these studies (a total of 4 subjects) did have an aminotransferase level>3×ULN and are included in Table 1.

[3] = tested on: patients with PAH (WHO Group 1); test: ARIES-1 12-week placebo-controlled study; format: in vivo, human; conditions: for Mean change from baseline in 6-minute walk distance / Placebo-adjusted mean change from baseline in 6-minute walk distance / Placebo-adjusted median change from baseline in 6-minute walk distance: 12 weeks; for Mean change from baseline in 6-minute walk distance: mean ± SD
Description: Two 12-week, randomized, double-blind, placebo-controlled, multicenter studies were conducted in 393 patients with PAH (WHO Group 1). The two studies were identical in design except for the doses of ambrisentan and the geographic region of the investigational sites. ARIES-1 (Ambrisentan in Pulmonary Arterial Hypertension, Randomized, Double-Blind, Placebo-Controlled, Multicenter, Efficacy Studies) compared once-daily doses of 5 mg and 10 mg ambrisentan to placebo, while ARIES-2 compared once-daily doses of 2.5 mg and 5 mg ambrisentan to placebo. In both studies, ambrisentan or placebo was added to current therapy, which could have included a combination of anticoagulants, diuretics, calcium channel blockers, or digoxin, but not epoprostenol, treprostinil, iloprost, bosentan, or sildenafil. The primary study endpoint was 6-minute walk distance. In addition, clinical worsening, WHO functional class, dyspnea, and SF-36® Health Survey were assessed.
Patients had idiopathic or heritable PAH (64%) or PAH associated with connective tissue diseases (32%), HIV infection (3%), or anorexigen use (1%). There were no patients with PAH associated with congenital heart disease.
Patients had WHO functional class I (2%), II (38%), III (55%), or IV (5%) symptoms at baseline. The mean age of patients was 50 years, 79% of patients were female, and 77% were Caucasian.
Clinical Worsening: Time to clinical worsening of PAH was defined as the first occurrence of death, lung transplantation, hospitalization for PAH, atrial septostomy, study withdrawal due to the addition of other PAH therapeutic agents or study withdrawal due to early escape. Early escape was defined as meeting two or more of the following criteria: a 20% decrease in the 6-minute walk distance; an increase in WHO functional class; worsening right ventricular failure; rapidly progressing cardiogenic, hepatic, or renal failure; or refractory systolic hypotension.

[4] = ARIES-1, ambrisentan N = 134, 12-week treatment, intention-to-treat

Structure (SMILES) | IC50 [1] [µM] | subjects who did not experience aminotransferase elevations while receiving ambrisentan ([2]; AMB-222 (n=36)) [%] | subjects who did not experience aminotransferase elevations while receiving ambrisentan ([2]; AMB-323 (n=27)) [%] | Mean change from baseline in 6-minute walk distance ([3]; ARIES-1, 5 mg once daily (N = 67)) [meters] | Placebo-adjusted mean change from baseline in 6-minute walk distance ([3]; ARIES-1, 5 mg) [meters] | Placebo-adjusted median change from baseline in 6-minute walk distance ([3]; ARIES-1, 5 mg) [meters] | Mean change from baseline in 6-minute walk distance ([3]; ARIES-1, 10 mg once daily (N = 67)) [meters] | Placebo-adjusted mean change from baseline in 6-minute walk distance ([3]; ARIES-1, 10 mg) [meters] | Placebo-adjusted median change from baseline in 6-minute walk distance ([3]; ARIES-1, 10 mg) [meters] | Clinical worsening, % [3, 4] [%] | Clinical worsening, no. [3, 4] | Time to clinical worsening, hazard ratio ([3]; ARIES-1, versus placebo)
COc1ccccc1Oc1c(NS(=O)(=O)c2ccc(C(C)(C)C)cc2)nc(-c2ncccn2)nc1OCCO [Bosentan] | > 100 | – | – | – | – | – | – | – | – | – | – | –
COC(c1ccccc1)(c1ccccc1)[C@H](Oc1nc(C)cc(C)n1)C(=O)O [Ambrisentan, (25)-2-[(4,6-dimethylpyrimidin-2-yl)oxy]-3-methoxy-3,3-diphenylpropanoic acid] | – | 97 | 89 | 23 ± 83 | 31 | 27 | 44 ± 63 | 51 | 39 | 3 | 4 | 0.28
